{
  "source": "patent US20090170759A1",
  "about": "“NEUROPROTECTIVE PEPTIDES” (priority 2007, published 2009)",
  "key": {"PC-12 cells": {"test_system": "PC-12 cells", "experiment": "Glutamate toxicity in PC-12 cells (trypan blue exclusion)", "assay_type": "cell-based, rat", "experimental": "[…] cells (from a rat Pheochromocytoma) were cultured on poly-D-Lysine coated tissue culture plastic in DMEM containing 10% FBS and 5% Horse serum. To induce the neuronal phenotype in PC-12 cells, serum was removed and the cells were treated with NGF (50 ng/ml). Cells were grown for 7 days in the presence of the NGF then used for experiments.\nPC-12 cells were cultured as described above. 24 hr prior to insult, cells were treated with rhEPO at concentrations ranging from 1 pm to 1 nm. On the day of the experiment, cells were exposed to 200 μM glutamate for 30 min. Cells were then washed 2 times with fresh media to remove the glutamate and cultured in fresh media containing NGF but no EPO. After 24 hr cells were assayed for viability using a trypan blue exclusion assay. Briefly, media was removed and the cells were incubated in 0.4% Trypan Blue for 5 min. Cells were then washed gently with PBS, then fixed with 10% formalin. Cell viability was determined by counting the total number of cells vs. the number of trypan blue positive (dead) cells."}, "[1]": {"test_system": "spontaneous hypertensive rats", "experiment": "Experimental model of cerebral ischemia (tandem CCA/MCA occlusion), infarct volume", "assay_type": "in vivo, rat", "details": "listed as EPO", "experimental": "Male spontaneous hypertensive rats (Charles River) weighing between 250-300 g were weighed and then anesthetized with ketamine (100 mg/ml)/xylazine (20 mg/ml) cocktail (1.2 ml/kg; i.p.). The level of anesthetic was assessed by corneal reflex (air puff to eye) and leg jerk in response to tail or foot pinch. Once the rat was anesthetized, it was placed on a small animal surgical board and restrained during the surgical procedure. The rat's body temperature was monitored continuously with a rectal probe and maintained at 37° C. with a homeostatic heating pad.\nRats were rendered ischemic by tandem occlusion of the left common carotid artery and the left middle cerebral artery for 2 h followed by 22 h of reperfusion using a modification of the technique described by Brint and co-workers (J. Cereb Blood Flow Metab 8:474-485, 1988). Specifically, the left CCA was isolated through an incision in the ventral surface of the neck. […]\nStudy I: EPO and Vehicle Delivered Via Osmotic Mini-Pump • […] prior to the onset of ischemia, an osmotic mini-pump (Model 1003D; Alza) filled with vehicle or EPO was placed between the scapula of the rat. […] Twenty-two hours later, the rats were evaluated for behavioral performance, a blood sample was collected for terminal plasma levels of EPO and then the rat was euthanized, brain removed, sectioned and stained for histological analysis.\nStudy II: EPO and Vehicle Delivered as a Single Intravenous Bolus Injection • On Day One, the rats were rendered ischemic as described above. […] Twenty-two hours later, the rats were evaluated for behavioral performance, a blood sample was collected for terminal plasma levels of EPO and then the rat was euthanized, brain removed, sectioned and stained for histological analysis. […]"}},
  "note": "Entries after “also recorded” stand apart in the source; their conditions may differ.",
  "data": [
    {"substance": "rhEPO: purified, recombinant human EPO (rhEPO), currently formulated and distributed under the trademarks of EPREX, ERYPO, or PROCRIT", "values": [
      {"measurement": "neuroprotective effect at 1 nm, glutamate toxicity", "setting": "PC-12 cells; 1 nm", "result": "no significant effect"},
      {"measurement": "cell survival after glutamate (in words)", "setting": "PC-12 cells; 1 to 10 pm given 24 hours prior to glutamate (200 um), p<0.001", "result": "significantly increased cell survival"},
      {"measurement": "cell death induced by glutamate toxicity (in words)", "setting": "PC-12 cells; 24 hr pre-treatment", "result": "significant decrease in cell death"},
      {"measurement": "peak concentration for the neuroprotective effect, glutamate toxicity", "setting": "PC-12 cells; 24 hr pre-treatment, 200 μM glutamate", "result": 10, "unit": "pm"},
      {"measurement": "infarct volume, Study I", "setting": "[1]; 132 or 1321 U/day continuous iv infusion via osmotic mini-pump, started before ischemia", "result": "significantly reduced infarct volume; also recorded: protects against ischemic injury"},
      {"measurement": "infarct volume, Study III", "setting": "[1]; repeat iv bolus of 2500 U/kg at 15 min, 2 h, 4 h and 6 h post-occlusion", "result": "significant decrease in infarct volume; also recorded: protects against ischemic injury"},
      {"measurement": "ischemic damage, Study II", "setting": "[1]; single iv bolus 15 min post-occlusion at 1000, 2500 or 5000 U/kg", "result": "did not protect against ischemic damage; also recorded: does not protect against ischemic injury"}
    ]}
  ]
}
